These results are taken from patent US12239646B2, “Cancer diagnostic and treatment” (DANA-FARBER CANCER INSTITUTE, INC., priority 2017, dated 2025).

Data set [1] concerns Fusobacterium nucleatum. Nature of the data set: Pilot compound screen for inhibition of Fusobacterium growth (BacTiter Glow luminescence). The data set is classed as cell-based. Conditions: 32 μM, in duplicate, 48 hours anaerobic; hit cut-off 3 SD from mean of neutral controls. On the procedure:
FIG. 16 depicts determining threshold to identify inhibitor hits. Neutral Control=untreated F. nucleatum. Inhibitor Control=F. nucleatum treated with metronidazole. 3 SD from mean of neutral controls=−86% inhibition hit cut-off.
FIG. 17 depicts identifying compounds that inhibit Fusobacterium growth. […] 3 SD from mean of neutral controls=−86% inhibition hit cut-off. 34 inhibitory compounds identified.
A pilot screen containing 1,846 compounds (in duplicate), at [32 μM] was carried out. Approximately 1-2×10^6 Fusobacterium nucleatum cells/ml was seeded and incubated anaerobically for 48 hours. The read out was by the addition of BacTiter Glow and luminescence read out.
(§1) A method for determining the threshold to identify inhibitor hits was established and carried out (FIG. 16). […] Validation of inhibitor hits and related compounds was carried out and dose response was determined for 5-FU, carmofur, and tegafur (FIG. 18). Validation of inhibitor hits was also carried out with additional patient CRC isolates of Fusobacterium (FIG. 19). […] Applicants also investigated whether the presence of Fusobacterium in colorectal tumors can explain patient response to 5-FU-based therapies. Data of 91 patient colorectal adenocarcinoma tumors with recurrence were obtained by Fusobacterium culture and bacterial 16s rRNA sequencing analysis.

Data set [2] concerns patient colorectal cancer isolates of Fusobacterium nucleatum and Fusobacterium necrophorum. As to the kind of experiment: Validation with additional patient CRC isolates of Fusobacterium. Type of data set: cell-based. Conditions: compared with plasma levels of treated patients (Takimoto et al. 1999). On the procedure: FIG. 19 depicts validation of with additional patient CRC isolates of Fusobacterium. […] (Takimoto et al., Clinical cancer research: an official journal of the American Association for Cancer Research 5, 1347-1352 (1999)).
as §1

For data set [3], the system named is Fusobacterium-positive colorectal tumors. Nature of the data set: Recurrence/metastasis of patient colorectal adenocarcinoma tumors by Fusobacterium status and 5-FU treatment. Conditions: 91 patient tumors with recurrence data; 43 patients treated with 5-FU or a 5-FU prodrug; p<0.05. On the procedure: FIG. 20 illustrates a comparison between tumors treated with 5-FU or a 5-FU prodrug (right panel) and tumors with no treatment (left panel). A total of 91 patient colorectal adenocarcinoma tumors with recurrence data were analyzed by Fusobacterium culture and bacterial 16s rRNA sequencing.
as §1

The conditions of data set [4]: during chemotherapy for adenocarcinoma of the small bowel; cited from earlier work.
Data set [5] concerns COCA36F3 F. nucleatum (colorectal cancer isolate). As to the kind of experiment: Validation of inhibitor hits, dose response curves. Type of data set: cell-based, Fusobacterium nucleatum. The following applies: 8-point, 2-fold dilutions, range 30-0.23 μM. As to the method: FIG. 18 depicts validation of inhibitor hits (and related compounds). […] Validation/dose plates: 8-point, 2-fold dilutions, range 30-0.23 μM. Dose Response Curves [0.32-30 μM]: COCA36F3 F. nucleatum (colorectal cancer isolate).
as §1

In data set [6] the test system is F. nucleatum strains isolated from COCA36 primary tumor and derived xenografts. As to the kind of experiment: Antibiotic sensitivity testing (E-test) of clinical F. nucleatum isolates. The data set is classed as cell-based, Fusobacterium nucleatum. The following applies: for MIC: Fusobacterium nucleatum. On the procedure: FIG. 14: Antibiotic sensitivity testing (E-test) of clinical F. nucleatum isolates. E-test on F. nucleatum strains isolated from COCA36 primary tumor and derived xenografts. All E-tests were carried out in triplicate on both FAA agar. The antibiotics tested were metronidazole (MZ), cefoxitin (FX) and imipenem (IP). All F. nucleatum strains tested were sensitive to cefoxitin and metronidazole in vitro: test range was 0.016 to 256 ug/ml. […] The F. nucleatum strains tested were resistant/hetero-resistant to imipenem in vitro.
A 1 McFarland solution, in TSB, was prepared from Fusobacterium strains grown for 24-48 hours on FAA under anaerobic conditions. Using a sterile cotton swab, each Fusobacterium strain were inoculated onto antibiotic free blood agar (FAA) and E-test strip (bioMérieux) for Metronidazole (MZ), Clindamycin (CM), Cefoxitin (FX) and Imipenem (IP) were incubated for up to 72 hours and sensitivity checked after 48 hours. Each sensitivity assay was conducted in triplicate. An FAA blood plate inoculated with each Fusobacterium strain, but without the E-test strip, was used as a growth control.

Data set [7] has as its system ETBF induced murine colonic tumors. The following applies: DeStefano Shields et al. 2016; cited from earlier work.
The test system of data set [8] is Fusobacterium species. Conditions: cited from earlier work; for general susceptibility of the species: background statement on Fusobacterium.
For data set [9], the system named is Fusobacterium-positive PDX tumors (COCA36). As to the kind of experiment: In vivo metronidazole trial, tumor volume of Fusobacterium-positive PDX. Also on record: species or system nude mice (Nu/Nu). The following applies: 100 mg/kg/day oral gavage, approximately 3 weeks, vs vehicle; p=0.0005. As to the method:
Animals bearing tumors (with volumes <250 mm^3) were randomized into statistically identical cohorts and treated with 100 mg/kg/day of metronidazole (Sigma Aldrich, USA), (suspension in 0.5% methylcellulose) or with the vehicle alone (0.5% methylcellulose) by oral gavage, daily, for approximately 3 weeks.
(§2) Nu/nu mice were raised in the specific-pathogen-free (SPF) conditions with autoclaved food and water. For both patient and HT-29 cell derived xenografts, tumor size was measured by caliper every Monday, Wednesday and Friday each week. Tumor volume was calculated using the formula: Volume=0.5×L×W^2 and growth rate was measured by calculating the percentage increase in volume. Tumor measurements were carried out in a blinded approach. Mouse body weight was recorded every 3 to 7 days. Mice were euthanized when the tumor diameter reached 2 cm or following the 3 weeks of drug treatment. Tissues were cryopreserved in Bambanker cell freezing media (Wako Chemicals USA) or snap frozen in liquid nitrogen and stored at −80° C. PDX experiments were performed with 22 (untreated group) and 24 (treated group) mice at timepoint zero, over three independent trials. HT-29 derived xenograft experiments were performed with 20 (untreated group) and 19 (treated group) mice at timepoint zero, over two independent trials. […]

Data set [10] relates to Fusobacterium-free xenografts derived from HT-29 colon adenocarcinoma cells. Nature of the data set: In vivo metronidazole trial, Fusobacterium-free HT-29 cell line xenograft. Also noted: species or system nude mice (Nu/Nu). Conditions: 100 mg/kg/day oral gavage, approximately 3 weeks, vs vehicle; p>0.05 at all timepoints. On the procedure: For HT-29 cell line xenograft experiments, approximately 1×10^6 HT29 cells were suspended in PBS, mixed 1:1 with Matrigel (BD Biosciences), and injected subcutaneously into the flanks of nude mice (Nu/Nu; Taconic) in a final volume of 100 μL. Following 10-14 days post implantation, mice were randomized into statistically identical cohorts and treated with 100 mg/kg/day of metronidazole (suspension in 0.5% methylcellulose) or with vehicle alone by oral gavage daily for approximately 3 weeks.
as §2, with “trials.” for “trials. HT-29 derived xenograft experiments were performed with 20 (untreated group) and 19 (treated group) mice at timepoint zero, over two independent trials.”

Data set [11] relates to Fusobacterium. Nature of the data set: Fusobacterium-targeted qPCR on PDX tissue after treatment. The following applies: PDX COCA36, metronidazole vs vehicle; p=0.002. Type of data set: in vivo, Fusobacterium species in PDX (COCA36) in Nu/Nu mice. On the procedure: A custom TaqMan primer/probe set was used to amplify Fusobacterium species DNA (Integrated DNA technologies, CA) as previously described (28). The cycle threshold (Ct) values for Fusobacterium species were normalized to the amounts of human genomic DNA in each reaction by using a primer and probe set for the prostaglandin transporter (PGT) reference gene, and the fold difference (2^−ΔCt) in Fusobacterium load in tumor tissue was calculated as described before (8). Each reaction contained 100 ng of genomic DNA and was assayed in triplicate in 20 μL reactions containing 1× final concentration TaqMan Universal Master Mix (Applied Biosystems) and each TaqMan Gene Expression Assay (Applied Biosystems), in a 96-well optical PCR plate. Amplification and detection of DNA was performed with the ABI 7300 Real-Time PCR System (Applied Biosystems) using the following reaction conditions: 10 min at 95° C. and 42 cycles of 15 s at 95° C. and 1 min at 60° C. Cycle thresholding (Ct) was calculated using the automated settings (Applied Biosystems). The primer and probe sequences for each TaqMan Gene Expression Assay were as follows (SEQ ID. 1-6): Fusobacterium species forward primer, 5′-[…]-3′; Fusobacterium species reverse primer, 5′-[…]-3′; Fusobacterium species FAM probe, 5′-[…]-3′. […]

Data set [12] concerns PDX tumors (COCA36), tumor cell proliferation. Nature of the data set: In vivo BrdU incorporation assay (IHC) of PDX tumors. Conditions: n=6 per arm, three weeks treatment vs vehicle, p=0.0015. Also on record: species or system nude mice (Nu/Nu). As to the method: Bromodeoxyuridine (BrdUrd) solution (10 mg/mL, 0.2 mL/mouse) was administered via intraperitoneal injection 16 hours after the last dose of metronidazole or vehicle. After 2 additional hours, mice were sacrificed and tumors were fixed in 10% formalin for immunohistochemistry (IHC) analysis. A total of 6 animals per arm, that were treated with metronidazole or the vehicle for three weeks were randomly selected, over two independent trials, for BrdU incorporation analysis. IHC was performed on 4-μm sections of formalin-fixed paraffin-embedded samples. Tissue sections were deparaffinized and rehydrated, and antigen retrieval was performed in 10 mmol/L citrate buffer (pH 6.0) in a 750 W microwave oven at […] for 30 minutes for BrdU staining, BrdU primary antibody (BD Biosciences, #347580) was added at a dilution of 1:100 and incubated for 1 hour at room temperature. Sections were further processed with horseradish peroxidase-conjugated secondary antibody. The reaction was detected by 3,3-diaminobenzidine and hematoxylin staining. Images were obtained with an Olympus CX41 microscope and QCapture software (QImaging).
Background: Incorporation of labelled thymidine or its analogues reports DNA synthesis.

The mark [13] stands for this setting: E-test on FAA agar, triplicate, test range 0.016 to 256 ug/ml, no bacterial growth at 0.016 ug/ml, read-out: MIC.

Entries after “also recorded” stand apart in the source; their conditions may differ. Where two headings read alike, the source gives them in different places.

With `O=c1[nH]cc(F)c(=O)[nH]1` [5-FU, 5-fluorouracil], in data set [1], the “inhibition of F. nucleatum growth in pilot screen” value is reported as “significantly inhibit F. nucleatum growth; also recorded: potent inhibitor of Fusobacterium growth”. The “inhibition of Fusobacterium growth, patient CRC isolates” value in data set [2] was “inhibits Fusobacterium growth at levels comparable to achievable doses in plasma of treated patients; also recorded: potent inhibitors of Fusobacterium growth; also recorded: within a range comparable to patient plasma levels when receiving 5-fluorouracil infusion”; in data set [2] (listed as 5-Fluorouracil), “inhibits Fusobacterium growth at levels comparable to achievable doses in plasma of treated patients”. The “recurrence/metastasis of Fusobacterium-positive colorectal tumors” value in data set [3] was “less likely to develop recurrence/metastasis”. Moreover, the cardiotoxicity entry in [4] was “associated with cardiotoxicity”.

In the case of `CCCCCCNC(=O)n1cc(F)c(=O)[nH]c1=O` [carmofur], the “inhibition of Fusobacterium growth, dose response validation” value is recorded as “even more potent in killing Fusobacterium than the active drug 5-FU” in data set [5] and “potent inhibitor of Fusobacterium growth” in data set [5] (listed as Carmofur).

For `CO[C@@]1(NC(=O)Cc2cccs2)C(=O)N2C(C(=O)O)=C(COC(N)=O)CS[C@@H]21` [cefoxitin], the “in vitro antibiotic sensitivity (sensitive / resistant)” value in data set [6] (E-test on FAA agar, triplicate) is “sensitive”. For the same molecule, in data set [6] (setting [13]), the MIC is below 0.016 µg/mL. Also, the “tumorigenesis in ETBF induced murine colonic tumors” value in data set [7] is on record as “reduction in tumorigenesis”.

For the molecule `O=C(N[C@H](CO)[C@H](O)c1ccc([N+](=O)[O-])cc1)C(Cl)Cl` [chloramphenicol], in [8], the “general susceptibility of the species” value is “susceptible”.

With `CC[C@H]1OC(=O)[C@H](C)[C@@H](O[C@H]2C[C@@](C)(OC)[C@@H](O)[C@H](C)O2)[C@H](C)[C@@H](O[C@@H]2O[C@H](C)C[C@H](N(C)C)[C@H]2O)[C@](C)(O)C[C@@H](C)C(=O)[C@H](C)[C@@H](O)[C@]1(C)O` [erythromycin], the “general susceptibility of the species” value in [8] was “resistant”.

In the case of `Cc1ncc([N+](=O)[O-])n1CCO` [metronidazole], the “in vitro antibiotic sensitivity (sensitive / resistant)” value in data set [6] (E-test on FAA agar, triplicate) is given as “sensitive”. The MIC is below 0.016 µg/mL in [6] (setting [13]) and below 0.016 µg/mL in data set [6] (F. nucleatum isolates from the PDX, read-out: minimum inhibitory concentration). Moreover, in data set [9], the “tumor growth (percentage tumor volume increase), Fusobacterium-positive PDX” value is “reduces tumor growth rate; also recorded: statistically significant decrease in tumor growth”. Further, the “tumor growth (percentage tumor volume increase), Fusobacterium-free HT-29 xenograft” value in data set [10] is “no significant decrease in tumor growth; also recorded: not statistically significant”. The “Fusobacterium load in the tumor tissue” value in data set [11] is recorded as “significant decrease in Fusobacterium load; also recorded: decreases Fusobacterium load”. Further, the “tumor cell proliferation (BrdU incorporation)” value in data set [12] was “reduces tumor growth rate and cancer cell proliferation; also recorded: significant reduction in tumor cell proliferation; also recorded: decreased cancer cell proliferation”. Besides, the “inhibition of F. nucleatum growth in pilot screen” value in [1] is on record as “significantly inhibit F. nucleatum growth”. Besides, in data set [8] (Lofmark et al. 2010), the “reported sensitivity of Fusobacteria” value is on record as “highly sensitive”.

As to penicillin, the “general susceptibility of the species” value in [8] was “susceptible”.
